# Values of other authors as cited in article PMC5510229, “BCAT1 controls metabolic reprogramming in activated human macrophages and is associated with inflammatory diseases” (Nature Communications, 2017).
# Legend:
# [1] = test system: a2δ−1 and a2δ−2 subunits of voltage-activated calcium channels; design: method as in PMID 19128880; details: cited from earlier work
# [2] = design: method as in PMID 10381778; details: cited from earlier work
compound,measurement,setting,value
NCC1(CC(=O)O)CCCCC1 [gabapentin],binding affinity,[1],high affinity
same,anti-inflammatory effects,[2],no apparent anti-inflammatory effects
